Test results as given in patent US10870647B2, “Imidazopyridine derivative, method for preparing same, and pharmaceutical composition containing same as active ingredient for preventing or treating cancer” (DAEGU-GYEONGBUK MEDICAL INNOVATION FOUNDATION, priority 2016, dated 2020).
Where two headings read alike, the source gives them in different places.

Columns and labels:
Assay type in all cases: cell-based
[1] = test system: MDA-MB-231; assay: Real time cell proliferation, IncuCyte ZOOM, 72 hours
[2] = test system: A375; assay: Cancer cell proliferation inhibition, CCK-8, 72 hours
Procedure: (§1) MTS assay was performed to evaluate the cancer cell proliferation inhibition (cancer cell apoptosis) effect of the compounds of examples of the present invention. Particularly, the assay was performed using the cancer cell lines GIST-T1, GIST-T1/816, GIST-430, GIST-430/654, GIST-R1, GIST-R3, M-NFS-60, RetParental (Ba/F3), Retwt (Ba/F3), RetV804M (Ba/F3), RET (LC2/ad-CDC6), FYN (MCP-1), FYN (FN), MDA-MB-231, Huh7, K562, T315I(Ba/F3), SK-MEL-28 and A375. Cell culture was performed using a medium suitable for each cell line.
(§2) In the meantime, MDA-MB-231 and A375 cells were seeded in a 96well plate at the density of 2×10^3/100 μl/well, which stood for a day for attachment. The culture fluid was eliminated. After removing the culture medium, the medium was replaced with the culture medium containing the compounds of the present invention at 3-times serially diluted 9 concentrations (0.0015-10 μM) and the DMSO control, followed by incubation in a 37° C. CO2 incubator for 72 hours. On the other hand, K-562 and Ba/F3-T315I cells were seeded in a 96-well plate at the density of 1×10^4/90 μl/well. The plate containing K-562 cells was added with the culture medium containing the compounds of the present invention at 3-times serially diluted 9 concentrations (0.015-100 μM) and the DMSO control (10 μl/well). The plate containing Ba/F3-T315I cells was added with the culture medium containing the compounds of the present invention at 5-times serially diluted 9 concentrations (0.000256-100 μM) and the DMSO control (10 μl/well). The final concentration was made 0-10 μM and then the cells were cultured in a 37° C. CO2 incubator for 72 hours.
(§3) A375, K-562 and Ba/F3-T315I cells were added with CCK-8 solution at the concentration of 10 μl/well, followed by orbital shaking for 30 seconds. Then, the cells were cultured in a 37° C. CO2 incubator for 2 hours. OD450 was measured by using a microplate reader. The OD value of the well treated with the culture medium and CCK-8 solution alone was subtracted from the OD value measured above, followed by calculation of IC50 using GraphPad Prism 6 software.

[3] = molecular target: T1, T315I (Ba/F3) (Homo sapiens, UniProt P00519, T315I, cells depend on it); assay: as above; conditions: read-out: T315I (Ba/F3) IC50
T1 construct: fused on or other part: P11274 (Breakpoint cluster region protein)
Procedure: as §1, §2, §3

[4] = test system: K562; assay: as above
Procedure: as §1, §2, §3

[5] = test system: FYN (MCP-1); assay: Cancer cell proliferation inhibition, MTS assay, 72 hours
Procedure: as §1
(§4) Other cell lines were seeded in a 96-well plate containing the corresponding medium appropriate for each cell line at the density of 3,000 cells/well, followed by culture in a 5% CO2 and 37° C. incubator for 24 hours. The compounds of examples of the present invention were added to each well at the concentration of from the highest volume of 50 μM to every step of serial dilution. The solvent control, dimethylsulfoxide (DMSO), was treated at the same concentration of 0.05% (v/v) as the volume used for the treatment of the compounds above. Each cell line was cultured for 72 hours. To investigate the cell viability, the MTS and PMS (phenazine methosulfate) mixture provided in CellTiter 96® AQuous Non-Radioactive Cell Proliferation Assay Kit (Promega) was added to each cell culture medium, followed by additional culture at 37° C. for 2 hours. Then, OD450 was measured. Based on OD of the solvent control cells not treated with any compounds of the present invention, the cell proliferation inhibition rate was calculated according to the treatment concentration of each compound. At this time, the concentration of each compound that was able to inhibit cancer cell proliferation up to 50% was determined as IC50 (uM). IC50 of each compound was determined with three data sets and calculated by using Prism softwater (version 6.01, GraphPad).

[6] = test system: RET (LC2/ad-CDC6); assay: as above; conditions: 72 h
Procedure: as §1, §4

[7] = test system: Huh7; assay: as above; conditions: Homo sapiens, Huh-7
Procedure: as §1, §4

[8] = test system: SK-MEL-28; assay: as above; conditions: Homo sapiens
Procedure: as §1, §4

[9] = test system: M-NFS-60; assay: Cancer cell proliferation inhibition, CCK-8, 72 hours
Procedure: as §1
M-NFS-60 cell line was cultured in the complete growth medium prepared by adding 10% FBS, 0.05 mM 2-mercaptoethanol and 62 ng of human M-CSF to RPMI. When the confluence reached 80% in T-75 flask, the cells were collected in a 50 ml tube for seeding, followed by centrifugation at 800 rpm for 5 minutes. The cells were suspended in 10 mL of growth medium. The cell number was counted by using a hematocytometer to determine the necessary cell number and the medium volume for seeding. The cells were seeded in a 96-well plate at the density of 20000 cells/well (200 μL/well), followed by stabilization in a 37° C. CO2 incubator, while the compounds of the present invention were prepared. The compounds of the present invention were serially diluted with DMSO at the ratio of 1/3 with setting the maximum concentration at 1968 nM, which were loaded in a new V-bottom 96-well plate, resulting in the preparation of total 11 concentrations including the DMSO control. The cells that had been placed in the incubator were taken out, to which the compounds of the present invention were added (2 μl/well). The plate treated with the compounds was cultured in a 37° C. CO2 incubator for 72 hours. 72 hours later, the plate treated with the compounds was taken out, to which CCK-8 solution was treated (20 μl/well). After well mixing, the plate was further cultured in a 37° C. CO2 incubator for 2 hours. Then, OD450 was measured by using a microplate reader. To obtain accurate results, the wells displaying bubbles were eliminated from the measurement.

Compound | IC50 [1] [nM] | IC50 [2] [nM] | GI50 [3] [nM] | IC50 [4] [nM] | IC50 [5] [nM] | IC50 ([1]; Homo sapiens, MDA-MB-231, 72 h) [nM] | IC50 ([2]; Homo sapiens, A-375, 72 h) [nM] | IC50 ([4]; Homo sapiens, K562, 72 h) [nM] | IC50 [6] [nM] | IC50 [7] [nM] | IC50 [8] [nM] | IC50 [9] [nM]
N-(4-((3-(dimethylamino)pyrrolidin-1-yl)methyl)-3-(trifluoromethyl)phenyl)-4-methyl-3-((8-((1-methyl-1H-pyrazol-4-yl)amino)imidazo[1,2-a]pyridin-3-yl)ethynyl)benzamide [Example 55] | 755 | 791 | 97.5 | < 1 | 5600 |  |  |  |  |  |  | 
CCN1CCN(Cc2ccc(NC(=O)c3ccc(C)c(C#Cc4cnc5c(Nc6ccc(C)cn6)cccn45)c3)cc2C(F)(F)F)CC1 [Example 21, N-(4-((4-ethylpiperazin-1-yl)methyl)-3-(trifluoromethyl)phenyl)-4-methyl-3-((8-((5-methylpyridin-2-yl)amino)imidazo[1,2-a]pyridin-3-yl)ethynyl)benzamide] |  |  | 149 |  |  | 1650 | 1850 | 15 | < 100 | 1850 | 1480 | 
Cc1ccc(Nc2cccn3c(C#Cc4cc(C(=O)Nc5ccc(CN6CCN(C)CC6)c(C(F)(F)F)c5)ccc4C)cnc23)cc1 [Example 24, 4-methyl-N-(4-((4-methylpiperazin-1-yl)methyl)-3-(trifluoromethyl)phenyl)-3-((8-(p-toylamino)imidazo[1,2-a]pyridin-3-yl)ethynyl)benzamide] |  |  | 668 |  |  | 3600 | 3520 | 45 | < 1000 | 11300 | 2630 | 
Cc1ccc(C(=O)Nc2ccc(CN3CCN(C)CC3)c(C(F)(F)F)c2)cc1C#Cc1cnc2c(Nc3ccc(C(F)(F)F)cc3)cccn12 [Example 19, 4-methyl-N-(4-((4-methylpiperazin-1-yl)methyl)-3-(trifluoromethyl)phenyl)-3-((8-((4-(trifluoromethyl)phenyl)amino)imidazo[1,2-a]pyridin-3-yl)ethynyl)benzamide] |  |  | 785 |  |  | 3190 | 4080 | 131 | < 10000 | 15200 | 3720 | 240
Cc1ccc(C(=O)Nc2ccccc2F)cc1C#Cc1cnc2c(Nc3cnn(C)c3)cccn12 [Example 2, N-(2-fluorophenyl)-4-methyl-3-((8-((1-methyl-1H-pyrazol-4-yl)amino)imidazo[1,2-a]pyridin-3-yl)ethynyl)benzamide] |  |  | > 10000 |  |  | > 10000 | > 10000 | 12 |  | > 50000 | > 10000 | 

Other lines, results leading:

IC50 [1] [nM] | IC50 [2] [nM] | GI50 [3] [nM] | IC50 [4] [nM] | IC50 [5] [nM] | IC50 ([1]; Homo sapiens, MDA-MB-231, 72 h) [nM] | IC50 ([2]; Homo sapiens, A-375, 72 h) [nM] | IC50 ([4]; Homo sapiens, K562, 72 h) [nM] | IC50 [6] [nM] | IC50 [7] [nM] | IC50 [8] [nM] | IC50 [9] [nM] | Compound
 |  | 32.6 |  | 320 | 1300 | 1390 | 8 |  |  |  |  | COCCn1cc(Nc2cccn3c(C#Cc4cc(C(=O)Nc5cc(C(C)(C)C(F)(F)F)on5)ccc4C)cnc23)cn1 [Example 58, 3-((8-((1-(2-methoxyethyl)-1H-pyrazol-4-yl)amino)imidazo[1,2-a]pyridin-3-yl)ethynyl)-4-methyl-N-(5-(1,1,1-trifluoro-2-methylpropan-2-yl)isoxazol-3-yl)benzamide]
 |  | 619 |  |  | 3040 | 3710 | 52 | < 1000 | 17300 | 2090 |  | CCN1CCN(Cc2ccc(NC(=O)c3ccc(C)c(C#Cc4cnc5c(Nc6ccc(C)cc6)cccn45)c3)cc2C(F)(F)F)CC1 [Example 25, N-(4-((4-ethylpiperazin-1-yl)methyl)-3-(trifluoromethyl)phenyl)-4-methyl-3-((8-(p-toylamino)imidazo[1,2-a]pyridin-3-yl)ethynyl)benzamide]
 |  | 247 |  | 1120 | 1110 | 1280 | < 1 |  | 66 |  |  | Cc1ccc(C(=O)Nc2ccc(CN3CCC(N(C)C)C3)c(C(F)(F)F)c2)cc1C#Cc1cnc2c(Nc3cnn(CCCN(C)C)c3)cccn12 (stereo not shown) [Example 35, 3-((8-((1-(3-(dimethylamino)propyl)-1H-pyrazol-4-yl)amino)imidazo[1,2-a]pyridin-3-yl)ethynyl)-N-(4-((3-(dimethylamino)pyrrolidin-1-yl)methyl)-3-(trifluoromethyl)phenyl)-4-methylbenzamide]
 |  | 3070 |  |  | > 10000 | 5040 | 90 | 1000 | 5650 | 4460 | 1610 | Cc1ccc(NC(=O)Nc2cc(C(C)(C)C)on2)cc1C#Cc1cnc2c(Nc3cnn(C(C)C)c3)cccn12 [Example 84, 1-(5-(tert-butyl)isoxazol-3-yl)-3-(3-((8-((1-isopropyl-1H-pyrazol-4-yl)amino)imidazo[1,2-a]pyridin-3-yl)ethynyl)-4-methylphenyl)urea]
 |  | 627 |  |  | 5700 | 5160 | 20 | 1000 | 2180 | 1440 |  | Cc1ccc(NC(=O)Nc2cccc(C(F)(F)F)c2)cc1C#Cc1cnc2c(Nc3cnn(C(C)C)c3)cccn12 [Example 83, 1-(3-((8-((1-isopropyl-1H-pyrazol-4-yl)amino)imidazo[1,2-a]pyridin-3-yl)ethynyl)-4-methylphenyl)-3-(3-(trifluoromethyl)phenyl)urea]
 |  | 28.8 |  |  | 319 | 249 | < 1 | > 10 | 87.8 |  | 31.1 | Cc1ccc(C(=O)Nc2ccc(CN3CC[C@H](N(C)C)C3)c(C(F)(F)F)c2)cc1C#Cc1cnc2c(Nc3cnn(C)c3)cccn12 [Example 51, (S)—N-(4-((3-(dimethylamino)pyrrolidin-1-yl)methyl)-3-(trifluoromethyl)phenyl)-4-methyl-3-((8-((1-methyl-1H-pyrazol-4-yl)amino)imidazo[1,2-a]pyridin-3-yl)ethynyl)benzamide]
